In PubChem BioAssay (NCI):
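Five compound concentrations were applied to cells in 96-well plates for 48 hours; endpoints were derived by simple linear interpolation of the resulting dose-response curve. GI50: concentration for 50% inhibition of growth. Definition used: TGI = concentration required for complete inhibition of growth.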

Assays:
Assay in all cases: NCI tumour cell line growth inhibition, 48 h
SF-539 CNS = system: SF-539 CNS
HCT-116 colon = system: HCT-116 colon
CAKI-1 renal = system: CAKI-1 renal
OVCAR-5 ovarian = system: OVCAR-5 ovarian
K-562 leukemia = system: K-562 leukemia
RPMI-8226 leukemia = system: RPMI-8226 leukemia
SF-268 CNS = system: SF-268 CNS
A549 NSCLC = system: A549 NSCLC
MDA-MB-231 breast = system: MDA-MB-231 breast
MCF7 breast = system: MCF7 breast

Row | Compound | TGI (SF-539 CNS) | TGI (HCT-116 colon) | TGI (CAKI-1 renal) | TGI (OVCAR-5 ovarian) | TGI (K-562 leukemia) | TGI (RPMI-8226 leukemia) | TGI (SF-268 CNS) | TGI (A549 NSCLC) | TGI (MDA-MB-231 breast) | GI50 (MCF7 breast) | TGI (MCF7 breast) | GI50 (MDA-MB-231 breast) | GI50 (SF-539 CNS) | GI50 (HCT-116 colon) | GI50 (CAKI-1 renal) | GI50 (OVCAR-5 ovarian) | GI50 (RPMI-8226 leukemia) | GI50 (SF-268 CNS) | GI50 (A549 NSCLC) | GI50 (K-562 leukemia)
1 | COC(=O)C1CCC2(CC1)NC(=O)NC2=O (stereo not given) | > 100 µM | > 100 µM | > 100 µM | > 100 µM | > 100 µM | > 100 µM | > 100 µM | > 100 µM |  |  |  |  |  |  |  |  |  |  |  | 
2 | COc1ccc(/C=C(\NC(=O)c2ccccc2)c2nc3ccccc3[nH]2)cc1 | > 100 µM | > 100 µM | > 100 µM | 84.5 µM | > 100 µM | 69.9 µM | > 100 µM | > 100 µM |  |  |  |  |  |  |  |  |  |  |  | 
3 | CCOc1ccccc1Nc1nc(C)c(C(=O)CC(=O)C(=O)Nc2ccccc2)s1 | > 100 µM | > 100 µM | > 100 µM | > 100 µM | > 100 µM |  | > 100 µM | > 100 µM |  |  |  |  |  |  |  |  |  |  |  | 
4 | O=C1[C@@H]2C3C=CC([C@H]4C(=O)N(CO)C(=O)[C@@H]34)[C@@H]2C(=O)N1CO | > 100 µM | > 57.4 µM | > 100 µM | > 100 µM | > 100 µM | 49.5 µM | > 77.7 µM | > 100 µM |  |  |  |  |  |  |  |  |  |  |  | 
5 | COc1cc(/C=C/C(=O)C(C)(C)C)cc(OC)c1OC | > 100 µM | > 100 µM | > 100 µM | > 100 µM | > 100 µM | > 100 µM | > 100 µM | > 100 µM |  |  |  |  |  |  |  |  |  |  |  | 
6 | O=c1c2ccccc2nc(-c2ccccc2Cl)n1NC1OC(CO)C(O)C(O)C1O (stereo not given) | > 100 µM | > 100 µM | > 100 µM | > 100 µM | > 100 µM | > 100 µM | > 100 µM | > 100 µM |  |  |  |  |  |  |  |  |  |  |  | 
7 | O=C1c2cccc3cc4ccccc4c(c23)C(=O)N1CCCNCCNCCCN1C(=O)c2cccc3cc4ccccc4c(c23)C1=O | 1.45 µM | 0.168 µM | 1.52 µM | 1.98 µM | 0.337 µM | 0.387 µM | 2.18 µM | 0.373 µM | 1.66 µM |  |  |  |  |  |  |  |  |  |  | 
8 | Cc1cccc(NC(=O)c2sc3nc4c(cc3c2N)CCC4)c1C | 2.51 µM | 11.8 µM | 56.7 µM | 62.6 µM |  | 16.2 µM | 26 µM | 13.5 µM | 29.3 µM | 0.261 µM | 13.6 µM | 0.594 µM | 0.241 µM | 0.381 µM | 0.332 µM | 0.531 µM | 0.346 µM | 0.722 µM | 0.453 µM | 
9 | S=C(N/N=C/c1ccccc1)NC1CC(c2ccccc2)Oc2ccccc21 (stereo not given) | > 100 µM | > 100 µM | > 100 µM | > 100 µM | > 100 µM |  | > 100 µM | > 100 µM |  |  |  |  |  |  |  |  |  |  |  | 
10 | CC(=O)/C=C\C(=O)NNS(=O)(=O)c1ccc(C)cc1 | > 100 µM | > 100 µM | > 100 µM | > 100 µM | > 100 µM | > 100 µM | > 100 µM | > 100 µM |  |  |  |  |  |  |  |  |  |  |  | 
11 | Cc1nn(C(=O)CC(=O)Nc2ccccc2Cl)c(C)c1N=Nc1ccccc1Cl | > 100 µM | > 100 µM | > 100 µM | > 100 µM | > 100 µM |  | > 100 µM | > 100 µM |  |  |  |  |  |  |  |  |  |  |  | 
12 | O=S(O)CCCSSCCCCSSCCCS(=O)O | > 100 µM | > 100 µM | > 100 µM | > 100 µM | > 100 µM |  | > 100 µM | > 100 µM |  |  |  |  |  |  |  |  |  |  |  | 
13 | C=CC(=O)N1CC[C@@H](Oc2nc(Nc3ccc(N4CCC(N5CCN(C)CC5)CC4)cc3)c(C(N)=O)nc2CC)C1 | > 100 µM | > 100 µM |  | > 100 µM | > 100 µM | > 100 µM | > 100 µM | > 100 µM | > 100 µM | > 100 µM | > 100 µM | > 100 µM | > 100 µM | > 100 µM |  | > 100 µM | > 100 µM | > 100 µM | > 100 µM | > 100 µM
14 | CC(=O)NC(Cc1ccccc1)C(=S)N1CCCC1 (stereo not given) | > 100 µM | > 100 µM | > 100 µM | > 100 µM | > 100 µM | > 100 µM | > 100 µM | > 100 µM |  |  |  |  |  |  |  |  |  |  |  | 
15 | CN(C)CCCn1c2c(c3ccc([N+](=O)[O-])cc3c1=O)C(=O)c1ccccc1-2 |  | 21.8 µM | 19.7 µM | 49 µM | > 100 µM | 19.3 µM | > 100 µM | 46.1 µM | 38.1 µM | 2.41 µM | > 100 µM | 15.9 µM |  | 6.48 µM | 3.07 µM | 15.3 µM | 3.46 µM | 9.53 µM | 17.5 µM | 6.05 µM
16 | COc1ccc2nccc(C3OC(=O)N4CCC(=O)CC34)c2c1 (stereo not given) | > 100 µM | > 100 µM | > 100 µM | > 100 µM | > 100 µM | > 100 µM | > 100 µM | > 100 µM |  |  |  |  |  |  |  |  |  |  |  | 
17 | CC(=O)NC1C(=O)CC(c2ccccc2)N(C)C1c1ccccc1 (stereo not given) | > 100 µM | > 100 µM | > 100 µM | > 100 µM | > 100 µM |  | > 100 µM | > 100 µM |  |  |  |  |  |  |  |  |  |  |  | 
18 | NCCN.O=N[O-].O=N[O-].O=N[O-].O=N[O-].[Co+3].[K+] | > 100 µM | > 100 µM |  | > 100 µM | > 100 µM | > 100 µM | > 100 µM | > 100 µM |  |  |  |  | > 100 µM | > 100 µM |  | > 100 µM | > 100 µM | > 100 µM | > 100 µM | > 100 µM
19 | O=c1[nH]c2cccccc-2c1-c1nc2ccccc2[nH]1 | 54.3 µM | > 100 µM | > 100 µM | > 100 µM | > 100 µM | > 100 µM | 45.3 µM | > 100 µM |  |  |  |  |  |  |  |  |  |  |  | 
20 | O=C1OC2C(O)COC2(OCc2c[nH]c3ccccc23)C1O (stereo not given) (tested in a mixture with another compound) | > 100 µM | > 100 µM | > 100 µM | > 100 µM | > 100 µM | > 100 µM | > 100 µM | > 100 µM |  |  |  |  |  |  |  |  |  |  |  | 
21 | C=C1C(=O)O[C@H]2[C@H]1CC/C(Cn1cc(CNC(=O)c3cc4ccccc4[nH]3)nn1)=C\CC[C@@]1(C)O[C@@H]21 | 8.65 µM | 3.56 µM | 12.2 µM | 9.07 µM |  | 9.34 µM | 22.5 µM | 46.5 µM | 3.78 µM | 2.94 µM | 15.4 µM | 1.97 µM | 2.85 µM | 1.59 µM | 2.26 µM | 2.51 µM | 3.37 µM | 7.26 µM | 22.1 µM | 
